From patent US20160331754A1, “THERAPIES FOR TREATING CANCERS” (GILEAD SCIENCES, INC., priority 2014, published 2016)
Values joined by “and” are separate entries in the source; they are usually repeats but may differ in a detail not shown here. Equal entries are not always repeated.

Key:
[1] = tested on: p-AKT Ser473; assay: Western blot, TPO-activated AKT phosphorylation in BaF3/MPL cells; format: cell-based; conditions: then TPO 50 ng/mL 10 min
Protocol: (§1) In addition, Compound B was examined for the effects on the PI3K signaling pathway by determining the levels of AKT and S6 phosphorylation with or without TPO activation. Two cell lines, BaF3/MPL and UT-7/TPO sensitive or responsive to TPO activation were used. The cells were starved (i.e. growing on medium having less FBS) in […] FBS/RPMI for two hours before treated with 0.1, 1.0, or 2.0 μM of Compound B or vehicle (0.1% DMSO in RPMI) for 2 hours at 37° C. To examine the TPO-activated phosphorylation, the cells were then treated or activated with 50 ng/mL of human recombinant TPO (Peprotech) for 10 minutes at 37° C. The TPO activation or treatment may reflect the conditions in diseased cells as the PI3K pathway is activated by TPO in myelofibrosis. After treating with compound and/or TPO, the cells were collected, lysed by lysis buffer (Cell Signaling), separated by SDS-PAGE, and analyzed by the Western blot using antibodies specific to p-AKT Ser473 or pS6 Ser235/236 (Cell Signaling). The phosphorylation levels in treated cells were calculated and compared to those of untreated cells (i.e. vehicle as negative control).

[2] = tested on: Ri-1 DLBCL cells; assay: Cell death assay (Annexin V/7AAD) in Ri-1 DLBCL cells; format: cell-based; conditions: 3 days
Protocol: Further, whole blood (WB) autologous B-cell depletion and cell-death induction assays were conducted as described in Mossner et al., Blood 115:4393-402, 2010. For cell death assay: Ri-1 DLBCL cells were seeded at 15,000 cells/well in 96-well plates. Cells were preincubated with Compound B or DMSO for 1 hour before the addition of antibody. Plates were incubated at 37° C. in a humidified CO2 chamber for 3 days. Cells were washed once with PBS and treated with Accutase for 15 minutes before being stained with Guava Nexin® reagent and analyzed on the Guava EasyCyte flow cytometer (Merck Millipore).
After 3 days of incubation, cell death was assessed by Annexin V/7AAD staining.

[3] = tested on: p-AKT Ser473; assay: Flow cytometry, basal AKT phosphorylation in CD34+ progenitor cells from MF patients; format: cell-based, human; conditions: one line per patient, vehicle=100
Protocol: PBMCs were isolated from whole blood of myelofibrosis (MF) patients who had not received treatments (i.e. naïve patients) or received ruxolitinib (i.e. rux-treated patients). The cells were treated with 0.02, 0.2, or 2.0 μM of Compound B or vehicle (0.1% DMSO in 0.1% FBS/RPMI) for 2 hours at 37° C. The cells were then fixed, permeabilized, and stained for FACS analysis. Antibodies specific to p-AKT Ser473 and pS6RP Ser235/236 were used to detect AKT phosphorylation (p-AKT) and S6RP phosphorylation (p-S6RP) in CD34^+/CD3^−/CD14^−/CD19/CD66^− (BD Biosciences) gated cells using flow cytometry. The percentage of basal (i.e. untreated with TPO) AKT and S6RP phosphorylation were normalized to vehicle control. A two-tailed paired t-test (GraphPad Prism) was used to calculate p-values. Values of p<0.05 were considered significant.
Similar studies were conducted with PI3K inhibitors Compounds C and D. PBMC from MF patients had received ruxolitinib (rux) and MF patient had received Compound A. The cells were treated with Compounds C or D at 0, 20.0, 200.0, 2000.0 nM for 2 hours at 37° C. Cells were treated with TPO for 10 minutes. The percentage of basal p-AKT and p-S6RP levels were normalized to vehicle control and those of TPO-treated were normalized to TPO-treated vehicle control. The PI3Kδ inhibitors Compound C is referred by the chemical names of (S)-2-(1-((9H-purin-6-yl)amino)ethyl)-6-fluoro-3-phenylquinazolin-4(3H)-one.

[4] = target: PI3Kδ (Homo sapiens, UniProt O00329); assay: TR-FRET in vitro biochemical enzyme assay of class I PI3K isoforms
Protocol: The effects of Compound B on the activities of class I PI3K isoforms were measured using an in vitro biochemical enzyme assay at steady-state concentrations of adenosine triphosphate (ATP). Compound B is (S)-2-(1-((9H-purin-6-yl)amino)propyl)-5-fluoro-3-phenylquinazolin-4(3H)-one as described above.
A time resolved fluorescence resonance energy transfer (TR-FRET) assay was used to monitor the formation of […] (PIP3) molecule, as it competed with fluorescently labeled PIP3 for binding to the GRP-1 pleckstrin homology domain protein.

[5] = tested on: pS6 Ser235/236; assay: Western blot, TPO-activated S6 phosphorylation in UT-7/TPO cells; format: cell-based; conditions: then TPO
Protocol: as §1

Sequence of PI3Kδ (O00329 whole entry, canonical isoform): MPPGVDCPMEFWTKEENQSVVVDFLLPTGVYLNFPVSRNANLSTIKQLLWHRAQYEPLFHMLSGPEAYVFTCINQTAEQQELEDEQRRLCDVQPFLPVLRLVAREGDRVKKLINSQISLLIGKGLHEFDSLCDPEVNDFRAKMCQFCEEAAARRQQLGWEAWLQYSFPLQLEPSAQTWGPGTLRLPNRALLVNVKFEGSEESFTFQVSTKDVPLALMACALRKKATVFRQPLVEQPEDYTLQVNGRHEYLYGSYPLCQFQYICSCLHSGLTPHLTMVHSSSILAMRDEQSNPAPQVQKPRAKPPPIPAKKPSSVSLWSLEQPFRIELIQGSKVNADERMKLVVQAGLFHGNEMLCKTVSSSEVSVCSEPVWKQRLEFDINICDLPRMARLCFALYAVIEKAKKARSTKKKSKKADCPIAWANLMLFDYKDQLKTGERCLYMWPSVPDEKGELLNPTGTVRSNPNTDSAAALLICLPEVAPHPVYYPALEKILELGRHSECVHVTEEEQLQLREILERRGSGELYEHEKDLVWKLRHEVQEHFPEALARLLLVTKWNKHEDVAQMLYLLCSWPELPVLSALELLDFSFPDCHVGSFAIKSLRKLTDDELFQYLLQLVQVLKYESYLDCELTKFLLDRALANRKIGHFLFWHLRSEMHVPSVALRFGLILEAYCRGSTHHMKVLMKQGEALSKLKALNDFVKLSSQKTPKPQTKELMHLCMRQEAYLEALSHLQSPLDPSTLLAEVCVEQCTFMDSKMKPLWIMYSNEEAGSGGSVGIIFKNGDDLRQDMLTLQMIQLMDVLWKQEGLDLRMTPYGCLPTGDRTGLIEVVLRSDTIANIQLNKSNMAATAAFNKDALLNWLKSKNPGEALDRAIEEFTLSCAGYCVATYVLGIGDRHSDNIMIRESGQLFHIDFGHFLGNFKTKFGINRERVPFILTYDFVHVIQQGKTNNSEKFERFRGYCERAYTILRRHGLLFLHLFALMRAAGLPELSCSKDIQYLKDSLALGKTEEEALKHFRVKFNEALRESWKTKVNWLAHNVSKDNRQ
Sequence of PI3Kδ (P27986 whole entry partner, canonical isoform): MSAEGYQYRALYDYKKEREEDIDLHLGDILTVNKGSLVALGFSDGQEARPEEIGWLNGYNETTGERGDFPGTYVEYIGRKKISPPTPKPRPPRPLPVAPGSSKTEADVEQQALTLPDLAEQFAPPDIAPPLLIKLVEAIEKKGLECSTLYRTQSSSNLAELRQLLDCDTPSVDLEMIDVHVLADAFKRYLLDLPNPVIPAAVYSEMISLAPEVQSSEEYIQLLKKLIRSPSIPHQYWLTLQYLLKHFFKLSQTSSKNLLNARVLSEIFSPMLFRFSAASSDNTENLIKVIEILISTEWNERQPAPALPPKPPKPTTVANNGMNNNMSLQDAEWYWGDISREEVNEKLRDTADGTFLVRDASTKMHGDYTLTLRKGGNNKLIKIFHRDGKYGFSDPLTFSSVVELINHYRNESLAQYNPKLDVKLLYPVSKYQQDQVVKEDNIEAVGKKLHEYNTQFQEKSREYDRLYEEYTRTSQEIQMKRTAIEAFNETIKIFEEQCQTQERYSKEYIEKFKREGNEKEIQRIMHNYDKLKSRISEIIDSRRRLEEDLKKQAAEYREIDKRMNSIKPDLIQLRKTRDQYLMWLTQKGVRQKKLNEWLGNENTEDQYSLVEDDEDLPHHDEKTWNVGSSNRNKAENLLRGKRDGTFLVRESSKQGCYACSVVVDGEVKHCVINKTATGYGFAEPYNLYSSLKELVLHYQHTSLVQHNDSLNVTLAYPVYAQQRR

## CC[C@H](Nc1ncnc2[nH]cnc12)c1nc2cccc(F)c2c(=O)n1-c1ccccc1 [Compound B, (S)-2-(1-((9H-purin-6-yl)amino)propyl)-5-fluoro-3-phenylquinazolin-4(3H)-one]
[1]; 0.1 μM 2 h
  reduced p-AKT levels vs vehicle: 51%
[1]; 1.0 μM 2 h
  reduced p-AKT levels vs vehicle: 64%
[1]; 2.0 μM 2 h
  reduced p-AKT levels vs vehicle: 67%
[2]; 100 nM Compound B alone
  Percentage of total Annexin V+ cells: 28% and 27%
[2]; 300 nM Compound B alone
  Percentage of total Annexin V+ cells: 31% and 33%
[2]; 600 nM Compound B alone
  Percentage of total Annexin V+ cells: 35% and 37%
[3]; 0.02 μM 2 h, naïve MF patients
  normalized percentage of basal AKT phosphorylation (p-AKT): 99% and 102% and 83% and 88% and 84%
[3]; 0.02 μM 2 h, rux-treated MF patients
  normalized percentage of basal AKT phosphorylation (p-AKT): 88% and 89% (2×) and 91% and 57% and 96% and 100%
[3]; 0.2 μM 2 h, naïve MF patients
  normalized percentage of basal AKT phosphorylation (p-AKT): 64% and 127% and 75% and 76% and 81% and 72%
[3]; 0.2 μM 2 h, rux-treated MF patients
  normalized percentage of basal AKT phosphorylation (p-AKT): 85% and 78% and 81% and 82% (2×) and 52% and 87%
[3]; 2 μM 2 h, naïve MF patients
  normalized percentage of basal AKT phosphorylation (p-AKT): 55% and 96% and 66% (2×) and 70% and 47%
[3]; 2 μM 2 h, rux-treated MF patients
  normalized percentage of basal AKT phosphorylation (p-AKT): 69% and 77% and 83% and 84% and 43% and 98% and 79%
[4]
  selectivity among PI3K isoforms: selective inhibitor to PI3Kδ
[4]; steady-state ATP
  inhibition to PI3Kδ compared to PI3Kα: 450 fold
  inhibition to PI3Kδ compared to PI3Kβ: 210 fold
  inhibition to PI3Kδ compared to PI3Kγ: 110 fold
[5]; 0.1 μM 2 h
  reduced p-S6 levels vs vehicle: 13%
[5]; 1.0 μM 2 h
  reduced p-S6 levels vs vehicle: 28%
[5]; 2.0 μM 2 h
  reduced p-S6 levels vs vehicle: 48%
